Experiments:
5-HT1a = molecular target: T1, 5-HT1a (Homo sapiens, UniProt P08908); assay: Radioligand binding, 5-HT receptor family: 5-HT1a ([3H]8-OH-DPAT); settings: CHO-K1 human recombinant receptor, [3H]8-OH-DPAT 0.5 nM; read-out: Binding affinity, IC50 (nM), 5-HT1a
T1 construct: purchased Euroscreen/BioSignal Packard Inc
T1 sequence (P08908 1-422): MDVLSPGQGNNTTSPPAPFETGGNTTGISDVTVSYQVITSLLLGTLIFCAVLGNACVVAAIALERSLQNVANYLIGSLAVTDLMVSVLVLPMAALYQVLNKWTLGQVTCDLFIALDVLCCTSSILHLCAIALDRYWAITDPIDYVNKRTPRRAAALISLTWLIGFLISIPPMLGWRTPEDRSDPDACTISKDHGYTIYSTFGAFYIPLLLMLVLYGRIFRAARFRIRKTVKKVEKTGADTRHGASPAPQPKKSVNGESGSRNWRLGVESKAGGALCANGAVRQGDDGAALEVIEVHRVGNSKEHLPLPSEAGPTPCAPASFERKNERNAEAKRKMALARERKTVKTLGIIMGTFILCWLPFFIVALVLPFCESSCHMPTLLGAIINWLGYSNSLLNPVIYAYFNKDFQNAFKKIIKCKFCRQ

hD3 receptor = molecular target: T2, hD3 receptor (Homo sapiens, UniProt P35462); assay: Dopamine receptor family binding: D3 ([3H]spiperone); settings: [3H]spiperone 1 nM; read-out: Binding affinity, IC50 (nM), D3
T2 construct: purchased BioSignal Packard Inc., Montreal, Canada

hD2L receptor = molecular target: T3, hD2L receptor (Homo sapiens, UniProt P14416); assay: Dopamine receptor family binding: D2 ([3H]spiperone); settings: [3H]spiperone 1 nM; read-out: Binding affinity, IC50 (nM), D2
T3 construct: purchased BioSignal Packard Inc., Montreal, Canada
Experimental: (§1) 2-2: Binding Assays of Dopamine Receptor Family
(§2) The radioligands used were [^3H]spiperone (for hD2L and hD3 receptors, 1 nM) and [^3H] YM-09151-2 (for hD4.2 receptor, 0.06 nM). Radioligand bindings were performed by the protocols provided by the supplier of receptor membranes (BioSignal Packard Inc., Montreal, Canada). Briefly, the buffer used in D2 or D3 receptor binding assay was 50 mM Tris-HCl (pH 7.4), 10 mM MgCl2, 1 mM EDTA, or 50 mM Tris-HCl (pH 7.4), 5 mM MgCl2 5 mM EDTA, 5 mM KCl, 1.5 mM CaCl2, 120 mM NaCl, respectively. In [^3H] YM-09151-2 receptor binding assays, the buffer containing 50 mM Tris-HCl (pH 7.4), 5 mM MgCl2, 5 mM EDTA, 5 mM KCl and 1.5 mM CaCl2 was used. […] Competition binding studies were carried out with 7-8 concentrations of the test compound run in duplicate tubes, and isotherms from three assays were calculated by computerized nonlinear regression analysis (GraphPad Prism Program, San Diego, […]) to yield median inhibitory concentration (IC50) values.

5-HT2a = molecular target: T4, 5-HT2a (Homo sapiens, UniProt P28223); assay: Radioligand binding, 5-HT receptor family: 5-HT2a ([3H]Ketanserin); settings: CHO-K1 human recombinant receptor, [3H]Ketanserin 1 nM; read-out: Binding affinity, IC50 (nM), 5-HT2a
T4 construct: purchased Euroscreen/BioSignal Packard Inc

5-HT7 = molecular target: T5, 5-HT7 (Homo sapiens, UniProt P34969); assay: Radioligand binding, 5-HT receptor family: 5-HT7 ([3H]LSD); settings: CHO-K1 human recombinant receptor, [3H]LSD 3 nM; read-out: Binding affinity, IC50 (nM), 5-HT7
T5 construct: purchased Euroscreen/BioSignal Packard Inc
Experimental: Radioligand bindings were performed according to the test method provided by the supplier of receptor membrane (Euroscreen/BioSignal Packard Inc.). The detailed assay conditions and the results were shown in the following Table 3 and Table 4, respectively.

hD4.2 receptor = molecular target: T6, hD4.2 receptor (Homo sapiens, UniProt P21917, DEL265-296); assay: Dopamine receptor family binding: D4 ([3H]YM-09151-2); settings: [3H]YM-09151-2 0.06 nM; read-out: Binding affinity, IC50 (nM), D4
T6 construct: purchased BioSignal Packard Inc., Montreal, Canada
T6 sequence (P21917 with tags, fused parts or gaps DEL265-296): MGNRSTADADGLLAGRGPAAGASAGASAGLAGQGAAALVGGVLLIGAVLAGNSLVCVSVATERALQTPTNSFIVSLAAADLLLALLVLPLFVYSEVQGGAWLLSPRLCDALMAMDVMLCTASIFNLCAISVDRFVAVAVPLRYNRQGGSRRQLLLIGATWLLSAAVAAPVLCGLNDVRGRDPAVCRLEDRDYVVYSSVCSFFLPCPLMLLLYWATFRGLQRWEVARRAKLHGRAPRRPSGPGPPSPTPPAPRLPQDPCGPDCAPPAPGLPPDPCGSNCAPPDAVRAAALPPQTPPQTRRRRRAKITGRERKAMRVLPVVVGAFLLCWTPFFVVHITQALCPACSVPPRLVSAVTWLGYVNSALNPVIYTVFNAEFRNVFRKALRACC
Experimental: as §1, §2

[1] = molecular target: Human serotonin 5-HT6 receptor (Homo sapiens, UniProt P50406); assay: [3H]LSD binding assay on cloned 5-HT6 receptor; settings: IC50 (nM)
5-HT2c = molecular target: T7, 5-HT2c (Homo sapiens, UniProt P28335); assay: Radioligand binding, 5-HT receptor family: 5-HT2c ([3H]Mesulergine); settings: CHO-K1 human recombinant receptor, [3H]Mesulergine 1 nM; read-out: Binding affinity, IC50 (nM), 5-HT2c
T7 construct: purchased Euroscreen/BioSignal Packard Inc
T7 sequence (P28335 33-458): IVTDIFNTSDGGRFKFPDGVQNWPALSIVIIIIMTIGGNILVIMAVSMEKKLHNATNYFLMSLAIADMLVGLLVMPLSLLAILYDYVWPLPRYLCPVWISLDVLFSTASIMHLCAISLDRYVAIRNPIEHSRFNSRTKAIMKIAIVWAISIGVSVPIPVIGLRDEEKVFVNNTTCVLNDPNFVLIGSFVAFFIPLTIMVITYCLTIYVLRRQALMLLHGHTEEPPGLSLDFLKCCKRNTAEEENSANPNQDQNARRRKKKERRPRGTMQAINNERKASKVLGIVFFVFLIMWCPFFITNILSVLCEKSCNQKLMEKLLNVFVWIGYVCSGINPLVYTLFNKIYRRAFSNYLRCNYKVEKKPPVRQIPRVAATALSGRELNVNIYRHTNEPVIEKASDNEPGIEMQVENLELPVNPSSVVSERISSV

D1 = D1 (Homo sapiens, UniProt P21728); assay: Dopamine receptor family binding: D1; settings: read-out: Binding affinity, IC50 (nM), D1
[2] = Binding affinity, 5-HT6, Table 4
[3] = binding affinity to the 5-HT6 receptor, Table 2, 1.87 nM [3H]LSD, cloned human receptor membranes from Sf21 cells, 37° C. 60 min

T5 sequence (P34969 whole entry): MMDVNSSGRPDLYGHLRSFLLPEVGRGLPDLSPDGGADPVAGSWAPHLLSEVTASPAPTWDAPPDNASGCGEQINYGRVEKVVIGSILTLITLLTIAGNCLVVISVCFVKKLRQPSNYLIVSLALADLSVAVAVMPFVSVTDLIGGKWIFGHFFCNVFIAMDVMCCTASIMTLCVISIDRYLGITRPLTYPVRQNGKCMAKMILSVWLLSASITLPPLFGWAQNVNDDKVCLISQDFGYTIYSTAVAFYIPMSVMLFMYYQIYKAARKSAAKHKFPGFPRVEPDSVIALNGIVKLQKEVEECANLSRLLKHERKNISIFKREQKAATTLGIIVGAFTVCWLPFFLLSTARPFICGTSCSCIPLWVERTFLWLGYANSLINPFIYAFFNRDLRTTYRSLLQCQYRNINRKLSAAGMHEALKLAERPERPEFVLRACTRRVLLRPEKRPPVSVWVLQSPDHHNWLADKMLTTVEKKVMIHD
Sequence of Human serotonin 5-HT6 receptor (P50406 whole entry): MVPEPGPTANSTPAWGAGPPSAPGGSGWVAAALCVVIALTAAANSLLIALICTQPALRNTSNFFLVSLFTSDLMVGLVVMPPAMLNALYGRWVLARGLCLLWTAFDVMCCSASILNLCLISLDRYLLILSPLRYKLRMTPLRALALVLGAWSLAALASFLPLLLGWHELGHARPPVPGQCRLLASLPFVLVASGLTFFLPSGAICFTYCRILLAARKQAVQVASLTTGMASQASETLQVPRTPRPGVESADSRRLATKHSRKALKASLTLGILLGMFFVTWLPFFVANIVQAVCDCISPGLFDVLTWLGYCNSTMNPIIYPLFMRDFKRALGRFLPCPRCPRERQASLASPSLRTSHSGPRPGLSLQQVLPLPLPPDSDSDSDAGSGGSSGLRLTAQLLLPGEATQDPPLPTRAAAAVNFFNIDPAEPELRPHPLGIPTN
Sequence of D1 (P21728 whole entry): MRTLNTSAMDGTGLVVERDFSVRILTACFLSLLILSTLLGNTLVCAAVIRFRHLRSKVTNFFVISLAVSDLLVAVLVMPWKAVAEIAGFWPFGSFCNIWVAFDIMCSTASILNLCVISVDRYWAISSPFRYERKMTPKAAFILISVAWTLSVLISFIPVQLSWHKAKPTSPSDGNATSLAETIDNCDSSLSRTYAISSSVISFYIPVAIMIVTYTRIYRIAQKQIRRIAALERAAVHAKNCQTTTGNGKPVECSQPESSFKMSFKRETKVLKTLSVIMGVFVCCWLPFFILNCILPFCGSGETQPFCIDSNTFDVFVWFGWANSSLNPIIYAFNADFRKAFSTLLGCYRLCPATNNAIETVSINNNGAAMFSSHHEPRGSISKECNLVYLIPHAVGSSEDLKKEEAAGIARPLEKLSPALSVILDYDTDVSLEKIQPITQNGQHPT
T2 sequence (P35462 whole entry): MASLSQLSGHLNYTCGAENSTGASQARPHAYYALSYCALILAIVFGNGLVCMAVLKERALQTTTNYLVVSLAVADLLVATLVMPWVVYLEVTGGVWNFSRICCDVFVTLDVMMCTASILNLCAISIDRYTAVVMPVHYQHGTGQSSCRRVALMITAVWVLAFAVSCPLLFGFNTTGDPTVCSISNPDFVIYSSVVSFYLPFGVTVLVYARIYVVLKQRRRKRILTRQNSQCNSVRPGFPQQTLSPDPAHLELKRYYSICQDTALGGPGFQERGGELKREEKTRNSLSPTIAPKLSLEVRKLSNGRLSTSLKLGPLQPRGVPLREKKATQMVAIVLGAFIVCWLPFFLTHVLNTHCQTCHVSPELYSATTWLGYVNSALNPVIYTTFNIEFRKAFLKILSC
T3 sequence (P14416 whole entry): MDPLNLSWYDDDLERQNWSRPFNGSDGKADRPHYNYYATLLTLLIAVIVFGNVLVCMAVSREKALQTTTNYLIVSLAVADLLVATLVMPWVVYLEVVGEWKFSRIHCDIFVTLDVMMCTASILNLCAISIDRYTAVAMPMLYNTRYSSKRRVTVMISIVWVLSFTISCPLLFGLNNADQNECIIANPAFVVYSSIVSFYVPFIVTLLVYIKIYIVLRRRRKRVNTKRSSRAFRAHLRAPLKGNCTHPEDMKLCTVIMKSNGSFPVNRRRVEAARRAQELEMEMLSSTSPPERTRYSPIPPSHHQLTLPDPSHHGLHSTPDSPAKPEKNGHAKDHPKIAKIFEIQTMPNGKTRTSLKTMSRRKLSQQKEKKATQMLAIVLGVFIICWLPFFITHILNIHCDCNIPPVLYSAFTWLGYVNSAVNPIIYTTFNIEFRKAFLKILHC
T4 sequence (P28223 whole entry): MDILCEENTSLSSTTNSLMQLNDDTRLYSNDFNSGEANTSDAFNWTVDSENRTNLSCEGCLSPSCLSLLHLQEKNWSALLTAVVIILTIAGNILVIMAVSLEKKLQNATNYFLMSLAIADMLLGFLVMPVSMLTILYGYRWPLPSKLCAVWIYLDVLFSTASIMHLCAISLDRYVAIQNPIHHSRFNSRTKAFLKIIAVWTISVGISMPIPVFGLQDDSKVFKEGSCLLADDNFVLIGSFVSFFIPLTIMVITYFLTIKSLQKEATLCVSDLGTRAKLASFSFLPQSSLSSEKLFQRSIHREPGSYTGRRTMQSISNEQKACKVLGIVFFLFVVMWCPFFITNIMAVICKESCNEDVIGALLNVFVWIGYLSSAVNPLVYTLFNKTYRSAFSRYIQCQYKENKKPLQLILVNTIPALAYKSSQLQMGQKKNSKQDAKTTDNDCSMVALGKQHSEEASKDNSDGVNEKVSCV

Structure (SMILES) | IC50 (5-HT1a) | IC50 (hD3 receptor) | IC50 (hD2L receptor) | IC50 (5-HT2a) | IC50 (5-HT7) | IC50 (hD4.2 receptor) | IC50 [1, 2] | IC50 [1, 3] | IC50 (5-HT2c) | IC50 (D1) | melting point
C[C@@H](c1ccccc1)N1C(=O)N(Cc2ccccc2)c2cc(Cl)cc(N3CCNCC3)c2S1(=O)=O [Example 59, 4-Benzyl-6-chloro-1,1-dioxo-2-[(S)-1-phenyl-ethyl]-8-piperazin-1-yl-1,4-dihydro-2H-1λ^6-benzo[1,2,4]thiadiazin-3-one] | 1400 nM | 403 nM | 4640 nM | 272 nM | 2300 nM | > 10000 nM | 3 nM | 3 nM | 508 nM | 4100 nM | –
C[C@@H](c1ccccc1)N1C(=O)N(Cc2ccccc2)c2cc(Cl)cc(N3CCN(C)CC3)c2S1(=O)=O [Example 26, 4-Benzyl-6-chloro-8-(4-methyl-piperazin-1-yl)-1,1-dioxo-2-[(S)-1-phenyl-ethyl]-1,4-dihydro-2H-1λ^6-benzo[1,2,4]thiadiazin-3-one] | 589 nM | 715 nM | 6580 nM | 145 nM | 8250 nM | > 10000 nM | 2.4 nM | 2.4 nM | 183 nM | 1760 nM | –
Cc1cc(C)cc(CCCN2C(=O)N(Cc3ccccc3)c3cc(Cl)cc(N4CCN(C)CC4)c3S2(=O)=O)c1 [Example 38, 4-Benzyl-6-chloro-2-[3-(3,5-dimethyl-phenyl)-propyl]-8-(4-methyl-piperazin-1-yl)-1,1-dioxo-1,4-dihydro-2H-1λ^6-benzo[1,2,4]thiadiazin-3-one] | 3420 nM | 336 nM | > 10000 nM | 359 nM | 9140 nM | > 10000 nM | 0.6 nM | 0.6 nM | 508 nM | 918 nM | –
C[C@H](c1ccccc1)N1C(=O)N(Cc2ccccc2)c2cc(Cl)cc(N3CCNCC3)c2S1(=O)=O [Example 58, 4-Benzyl-6-chloro-1,1-dioxo-2-[(R)-1-phenyl-ethyl]-8-piperazin-1-yl-1,4-dihydro-2H-1λ^6-benzo[1,2,4]thiadiazin-3-one] | > 10000 nM | 398 nM | 4500 nM | 549 nM | 6390 nM | > 10000 nM | 2.3 nM | 2.3 nM | 424 nM | 1780 nM | –
COc1cccc(N2C(=O)N(Cc3ccccc3)c3cc(Cl)cc(N4CCNCC4)c3S2(=O)=O)c1 [Example 62, 4-Benzyl-6-chloro-2-(3-methoxy-phenyl)-1,1-dioxo-8-piperazin-1-yl-1,4-dihydro-2H-1λ^6-benzo[1,2,4]thiadiazin-3-one] | 926 nM | 2370 nM | > 10000 nM | 3170 nM | > 10000 nM | > 10000 nM | 10.2 nM | 10.2 nM | 4960 nM | 5590 nM | –
COc1ccc(CN2C(=O)N(Cc3ccccc3)c3cc(Cl)cc(N4CCN(C)CC4)c3S2(=O)=O)cc1 [Example 18, 4-Benzyl-6-chloro-2-(4-methoxy-benzyl)-8-(4-methyl-piperazin-1-yl)-1,1-dioxo-1,4-dihydro-2H-1λ^6-benzo[1,2,4]thiadiazin-3-one] | 3420 nM | 1220 nM | 6580 nM | 563 nM | > 10000 nM | > 10000 nM | 3.6 nM | 3.6 nM | 990 nM | > 10000 nM | –
C[C@H](c1ccccc1)N1C(=O)N(Cc2ccccc2)c2cc(Cl)cc(N3CCN(C)CC3)c2S1(=O)=O [Example 25, 4-Benzyl-6-chloro-8-(4-methyl-piperazin-1-yl)-1,1-dioxo-2-[(R)-1-phenyl-ethyl]-1,4-dihydro-2H-1λ^6-benzo[1,2,4]thiadiazin-3-one] | > 10000 nM | 265 nM | 1920 nM | 350 nM | 8560 nM | > 10000 nM | 1.1 nM | 1.1 nM | 691 nM | 963 nM | –
COc1ccc(CN2C(=O)N(Cc3ccccc3)c3cc(Cl)cc(N4CCNCC4)c3S2(=O)=O)cc1 [Example 53, 4-Benzyl-6-chloro-2-(4-methoxy-benzyl)-1,1-dioxo-8-piperazin-1-yl-1,4-dihydro-2H-1λ^6-benzo[1,2,4]thiadiazin-3-one] | 3260 nM | 844 nM | 2440 nM | 651 nM | 6580 nM | > 10000 nM | 11.8 nM | 11.8 nM | 961 nM | > 10000 nM | –
CN1CCN(c2cc(Cl)cc3c2S(=O)(=O)N(c2ccccc2)C(=O)N3Cc2ccccc2)CC1 [Example 27, 4-Benzyl-6-chloro-8-(4-methyl-piperazin-1-yl)-1,1-dioxo-2-phenyl-1,4-dihydro-2H-1λ^6-benzo[1,2,4]thiadiazin-3-one] | 2080 nM | 5950 nM | > 10000 nM | 4310 nM | > 10000 nM | > 10000 nM | 3.8 nM | 3.8 nM | 2580 nM | 2690 nM | –
CN1CCN(c2cc(Cl)cc3c2S(=O)(=O)N(Cc2ccccc2Cl)C(=O)N3Cc2ccccc2)CC1 [Example 5, 4-Benzyl-6-chloro-2-(2-chloro-benzyl)-8-(4-methyl-piperazin-1-yl)-1,1-dioxo-1,4-dihydro-2H-1λ^6-benzo[1,2,4]thiadiazin-3-one] | 3010 nM | 93 nM | 5090 nM | 396 nM | > 10000 nM | > 10000 nM | 1.3 nM | 1.3 nM | 240 nM | – | 132 to 133 °C
